Numbers after ± are expanded uncertainties.
Tests used:
[1] = refractive index (Na D-line) (dimensionless); settings: 298.15 K; 101.33 kPa; Liquid; Standard Abbe refractometry
[2] = 298.15 K, 101.3 kPa, Liquid; for mass density: Vibrating tube method
[3] = xn = mol fraction of the nth substance listed; settings: 298.15 K, 101.3 kPa, Liquid; for mass density: Vibrating tube method
[4] = refractive index (Na D-line) (dimensionless); xn = mol fraction of the nth substance listed; settings: 298.15 K, 101.3 kPa, Liquid, Standard Abbe refractometry

CCOS(=O)(=O)[O-].CC[n+]1cccc(C)c1 [1-ethyl-3-methylpyridinium ethylsulfate]
Settings | mass density [kg/m3] | refractive index | viscosity [mPa·s]
[1] | – | 1.50666 ± 0.0012 | –
[2] | 1222.2 ± 8.1 | – | 161.4 ± 27

CCOS(=O)(=O)[O-].CC[n+]1cccc(C)c1 [1-ethyl-3-methylpyridinium ethylsulfate] + CCCO
Settings | mass density, [3] [kg/m3] | refractive index, [4] | viscosity, [3] [mPa·s]
x2 = 0 | 1222.2 ± 8.1 | 1.50666 ± 0.0012 | 161.4 ± 27
x2 = 0.0863 | 1208.44 ± 6.6 | 1.50223 ± 0.0011 | 126.4 ± 17
x2 = 0.1279 | 1201.22 ± 6 | 1.5002 ± 0.0011 | 112.4 ± 13
x2 = 0.2201 | 1183.56 ± 4.6 | 1.49524 ± 0.001 | 85.83 ± 7
x2 = 0.3243 | 1160.24 ± 3.4 | 1.48866 ± 0.00096 | 62.26 ± 2.6
x2 = 0.4177 | 1135.68 ± 2.4 | 1.48167 ± 0.0009 | 48.86 ± 2
x2 = 0.5126 | 1106.18 ± 1.6 | 1.47321 ± 0.00084 | 34.16 ± 1.3
x2 = 0.6093 | 1069.97 ± 1.1 | 1.4627 ± 0.00079 | 24.62 ± 0.93
x2 = 0.7176 | 1019.9 ± 0.71 | 1.44818 ± 0.00074 | 16.27 ± 0.61
x2 = 0.824 | 956.78 ± 0.57 | 1.4297 ± 0.0007 | 9.9 ± 0.38
x2 = 0.8834 | 913.04 ± 0.55 | 1.41684 ± 0.00069 | 7.027 ± 0.29
x2 = 0.9658 | 837.78 ± 0.53 | 1.39459 ± 0.00068 | 3.411 ± 0.15

CCCO [propan-1-ol]
Settings | mass density [kg/m3] | refractive index | viscosity [mPa·s]
[1] | – | 1.3837 ± 0.00068 | –
[2] | 799.5 ± 0.53 | – | 2.017 ± 0.093

CCCO [propan-1-ol] + CCOS(=O)(=O)[O-].CC[n+]1cccc(C)c1
x1 = 1
Settings | mass density [kg/m3] | refractive index | viscosity [mPa·s]
[3] | 799.5 ± 0.53 | – | 2.017 ± 0.093
[4] | – | 1.3837 ± 0.00068 | –

From the NIST ThermoML archive (doi:10.1021/je8009732)
